In US8481750B2 (Boehringer Ingelheim International GmbH, priority 2009, dated 2013):

biological target: LFA-1 binding to ICAM-1 (Homo sapiens, UniProt P05107+P20701); experiment: Inhibition of LFA-1 binding to ICAM-1 (LFA-1/Biotin-sICAM-1 AlphaScreen molecular assay); conditions: highest compound concentration 1 μM in 1% DMSO, 37° C., 90 minutes
In short: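 AlphaScreen binding of purified LFA-1 to biotinylated sICAM-1 in DPBS with Ca/Mg, 2 mM MgCl2, 0.1% BSA, pH 7.1; compound top concentration 1 μM in 1% DMSO, 90 min at 37 °C. Detection with TS2/4 anti-LFA-1 acceptor beads (10 μg/mL final) and streptavidin donor beads (15 μg/mL final), room temperature in the dark.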

LFA-1 binding to ICAM-1, sequence (P20701 26-1170): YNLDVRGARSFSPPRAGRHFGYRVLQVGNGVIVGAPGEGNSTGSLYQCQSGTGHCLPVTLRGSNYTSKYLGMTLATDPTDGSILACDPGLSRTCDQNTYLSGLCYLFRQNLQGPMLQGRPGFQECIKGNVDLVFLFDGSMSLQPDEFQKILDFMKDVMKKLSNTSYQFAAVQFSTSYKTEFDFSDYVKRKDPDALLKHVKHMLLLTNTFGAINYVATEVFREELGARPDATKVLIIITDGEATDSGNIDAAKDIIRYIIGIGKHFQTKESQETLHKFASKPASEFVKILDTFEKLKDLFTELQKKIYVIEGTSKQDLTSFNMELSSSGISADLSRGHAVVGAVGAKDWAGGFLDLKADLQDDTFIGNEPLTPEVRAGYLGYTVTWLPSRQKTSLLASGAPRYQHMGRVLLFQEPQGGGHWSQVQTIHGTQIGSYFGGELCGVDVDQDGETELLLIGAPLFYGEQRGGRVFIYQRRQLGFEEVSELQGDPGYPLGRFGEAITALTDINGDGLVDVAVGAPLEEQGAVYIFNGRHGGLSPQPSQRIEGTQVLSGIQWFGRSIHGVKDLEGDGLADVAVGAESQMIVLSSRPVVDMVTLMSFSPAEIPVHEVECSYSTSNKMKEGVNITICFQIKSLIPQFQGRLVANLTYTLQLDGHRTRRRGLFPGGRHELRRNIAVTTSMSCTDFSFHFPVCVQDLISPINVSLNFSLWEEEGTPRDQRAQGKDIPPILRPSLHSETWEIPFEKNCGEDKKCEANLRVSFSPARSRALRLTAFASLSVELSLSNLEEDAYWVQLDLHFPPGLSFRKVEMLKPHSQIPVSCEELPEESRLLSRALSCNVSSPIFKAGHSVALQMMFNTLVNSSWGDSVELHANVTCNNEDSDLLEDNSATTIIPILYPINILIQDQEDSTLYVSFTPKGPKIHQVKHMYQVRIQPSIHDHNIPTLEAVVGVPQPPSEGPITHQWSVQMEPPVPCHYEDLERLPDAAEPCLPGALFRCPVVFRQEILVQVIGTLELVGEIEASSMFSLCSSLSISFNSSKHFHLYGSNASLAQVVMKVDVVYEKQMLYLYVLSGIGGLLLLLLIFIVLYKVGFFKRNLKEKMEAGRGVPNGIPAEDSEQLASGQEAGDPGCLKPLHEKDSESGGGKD
LFA-1 binding to ICAM-1, sequence (P05107 23-769): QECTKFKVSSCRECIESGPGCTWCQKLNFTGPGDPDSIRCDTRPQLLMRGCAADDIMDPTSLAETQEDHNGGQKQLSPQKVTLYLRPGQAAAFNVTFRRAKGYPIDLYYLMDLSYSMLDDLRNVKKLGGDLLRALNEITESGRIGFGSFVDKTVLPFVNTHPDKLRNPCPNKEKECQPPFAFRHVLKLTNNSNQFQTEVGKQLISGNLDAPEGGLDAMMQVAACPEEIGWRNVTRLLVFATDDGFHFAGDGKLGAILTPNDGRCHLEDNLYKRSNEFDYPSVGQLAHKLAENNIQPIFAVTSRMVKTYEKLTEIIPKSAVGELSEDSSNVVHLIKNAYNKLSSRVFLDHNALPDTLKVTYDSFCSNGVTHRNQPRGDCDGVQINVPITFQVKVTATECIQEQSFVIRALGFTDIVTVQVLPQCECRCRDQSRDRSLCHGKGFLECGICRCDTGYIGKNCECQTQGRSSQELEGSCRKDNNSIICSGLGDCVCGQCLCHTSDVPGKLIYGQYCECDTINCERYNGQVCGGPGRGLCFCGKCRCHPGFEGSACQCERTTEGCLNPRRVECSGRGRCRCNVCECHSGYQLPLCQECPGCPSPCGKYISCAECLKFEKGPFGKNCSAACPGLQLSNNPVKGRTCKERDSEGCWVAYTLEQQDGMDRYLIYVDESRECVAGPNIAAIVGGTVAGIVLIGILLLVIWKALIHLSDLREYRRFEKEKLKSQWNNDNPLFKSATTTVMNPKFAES

| Structure (SMILES) | IC50 [nM] |
| --- | --- |
| C[C@@]1(Cc2ccc(C#N)cc2)C(=O)N(c2cc(Cl)cc(Cl)c2)c2ncc(C(=O)NC3(C(=O)NC4(c5ccc(C(=O)NCC(O)CO)cn5)CC4)CC3)n21 (stereo partly shown) [compound 133] | 1.4 |
| C[C@@]1(Cc2ccc(C#N)cc2)C(=O)N(c2cc(Cl)cc(Cl)c2)c2ncc(C(=O)NC3(C(=O)NC4(c5ccc(C(=O)NCCc6ccccc6)cn5)CC4)CC3)n21 [compound 134] | 2.2 |
| CC(NC(=O)c1ccnc(C2(NC(=O)C3(NC(=O)c4cnc5n4[C@](C)(Cc4ccc(C#N)cc4)C(=O)N5c4cc(Cl)cc(Cl)c4)CC3)CC2)c1)c1cccnc1 (stereo partly shown) [compound 139] | 0.99 |
| CNC(=O)c1ccc(C2(NC(=O)C3(NC(=O)c4cnc5n4[C@](C)(Cc4ccc(C#N)cc4)C(=O)N5c4cc(Cl)cc(Cl)c4)CC3)CC2)nc1 [compound 140] | 1.5 |
| C[C@@]1(Cc2ccc(C#N)cc2)C(=O)N(c2cc(Cl)cc(Cl)c2)c2ncc(C(=O)NC3(C(=O)NC4(c5cc(C(=O)NCC6CC6)ccn5)CC4)CC3)n21 [compound 142] | 1.3 |
| CC(O)CNC(=O)c1ccnc(C2(NC(=O)C3(NC(=O)c4cnc5n4[C@](C)(Cc4ccc(C#N)cc4)C(=O)N5c4cc(Cl)cc(Cl)c4)CC3)CC2)c1 (stereo partly shown) [compound 146] | 0.98 |
| C[C@@]1(Cc2ccc(C#N)cc2)C(=O)N(c2cc(Cl)cc(Cl)c2)c2ncc(C(=O)NC3(C(=O)NC4(c5ccc(C(=O)N6CCC(C(N)=O)CC6)cn5)CC4)CC3)n21 [compound 147] | 1.9 |
| C[C@@]1(Cc2ccc(C#N)cc2)C(=O)N(c2cc(Cl)cc(Cl)c2)c2ncc(C(=O)NC3(C(=O)NC4(c5ccc(C(N)=O)cn5)CC4)CC3)n21 [compound 148] | 1.4 |
| CC(NC(=O)c1cccc(C2(NC(=O)C3(NC(=O)c4cnc5n4[C@](C)(Cc4ccc(C#N)cc4)C(=O)N5c4cc(Cl)cc(Cl)c4)CC3)CC2)n1)c1ccncc1 (stereo partly shown) [compound 151] | 1.3 |
| C[C@@]1(Cc2ccc(C#N)cc2)C(=O)N(c2cc(Cl)cc(Cl)c2)c2ncc(C(=O)NC3(C(=O)NC4(c5ccc(C(=O)N6CCN(S(C)(=O)=O)CC6)cn5)CC4)CC3)n21 [compound 153] | 1.5 |
| CN(CCO)C(=O)c1ccc(C2(NC(=O)C3(NC(=O)c4cnc5n4[C@](C)(Cc4ccc(C#N)cc4)C(=O)N5c4cc(Cl)cc(Cl)c4)CC3)CC2)nc1 [compound 154] | 1 |
| CN1CCN(C(=O)c2ccnc(C3(NC(=O)C4(NC(=O)c5cnc6n5[C@](C)(Cc5ccc(C#N)cc5)C(=O)N6c5cc(Cl)cc(Cl)c5)CC4)CC3)c2)CC1 [compound 156] | 1.1 |
| CC(=O)NC1CCN(C(=O)c2ccc(C3(NC(=O)C4(NC(=O)c5cnc6n5[C@](C)(Cc5ccc(C#N)cc5)C(=O)N6c5cc(Cl)cc(Cl)c5)CC4)CC3)nc2)C1 (stereo partly shown) [compound 158] | 0.9 |
| C[C@@]1(Cc2ccc(C#N)cc2)C(=O)N(c2cc(Cl)cc(Cl)c2)c2ncc(C(=O)NC3(C(=O)NC4(c5cccc(C(=O)NCc6cccnc6)n5)CC4)CC3)n21 [compound 162] | 2.3 |
| C[C@@]1(Cc2ccc(C#N)cc2)C(=O)N(c2cc(Cl)c(F)c(Cl)c2)c2ncc(C(=O)NC3(C(=O)NC4(c5ccc(C(N)=O)cn5)CC4)CC3)n21 [compound 164] | 0.82 |
| C[C@@H](NC(=O)c1ccnc(C2(NC(=O)C3(NC(=O)c4cnc5n4[C@](C)(Cc4ccc(C#N)cc4)C(=O)N5c4cc(Cl)cc(Cl)c4)CC3)CC2)c1)C(N)=O [compound 166] | 3 |
| C[C@@]1(Cc2ccc(C#N)cc2)C(=O)N(c2cc(Cl)cc(Cl)c2)c2ncc(C(=O)NC3(C(=O)NC4(c5cc(C(=O)N6CC[C@@H](O)C6)ccn5)CC4)CC3)n21 [compound 168] | 3.4 |
| C[C@@]1(Cc2ccc(C#N)cc2)C(=O)N(c2cc(Cl)cc(Cl)c2)c2ncc(C(=O)NC3(C(=O)NC4(c5ccc(C(=O)NCCc6ccncc6)cn5)CC4)CC3)n21 [compound 169] | 2.5 |
| CC(=O)N1CCN(C(=O)c2ccc(C3(NC(=O)C4(NC(=O)c5cnc6n5[C@](C)(Cc5ccc(C#N)cc5)C(=O)N6c5cc(Cl)cc(Cl)c5)CC4)CC3)nc2)CC1 [compound 171] | 1.3 |
| C[C@@]1(Cc2ccc(C#N)cc2)C(=O)N(c2cc(Cl)cc(Cl)c2)c2ncc(C(=O)NC3(C(=O)NC4(c5cc(C(=O)NCC(N)=O)ccn5)CC4)CC3)n21 [compound 172] | 0.84 |

Other lines, results leading:

| IC50 [nM] | Structure (SMILES) |
| --- | --- |
| 0.55 | C[C@@]1(Cc2ccc(C#N)cc2)C(=O)N(c2cc(Cl)cc(Cl)c2)c2ncc(C(=O)NC3(C(=O)NC4(c5cc(C(=O)NC(CO)CO)ccn5)CC4)CC3)n21 [compound 129] |
| 0.74 | C[C@@]1(Cc2ccc(C#N)cc2)C(=O)N(c2cc(Cl)cc(Cl)c2)c2ncc(C(=O)NC3(C(=O)NC4(c5ccc(C(=O)N6CC[C@H](O)C6)cn5)CC4)CC3)n21 [compound 130] |
| 0.45 | C[C@@]1(Cc2ccc(C#N)cc2)C(=O)N(c2cc(Cl)cc(Cl)c2)c2ncc(C(=O)NC3(C(=O)NC4(c5cc(C(=O)NCC(=O)O)ccn5)CC4)CC3)n21 [compound 131] |
| 0.37 | CC(=O)NCCNC(=O)c1ccnc(C2(NC(=O)C3(NC(=O)c4cnc5n4[C@](C)(Cc4ccc(C#N)cc4)C(=O)N5c4cc(Cl)cc(Cl)c4)CC3)CC2)c1 [compound 132] |
| 0.79 | C[C@@]1(Cc2ccc(C#N)cc2)C(=O)N(c2cc(Cl)cc(Cl)c2)c2ncc(C(=O)NC3(C(=O)NC4(c5cc(C(=O)N6CCCC6)ccn5)CC4)CC3)n21 [compound 135] |
| 0.68 | C[C@@]1(Cc2ccc(C#N)cc2)C(=O)N(c2cc(Cl)cc(Cl)c2)c2ncc(C(=O)NC3(C(=O)NC4(c5ccc(C(=O)N6CCCCC6CO)cn5)CC4)CC3)n21 (stereo partly shown) [compound 137] |
| 0.67 | CCN(CC)C(=O)c1ccnc(C2(NC(=O)C3(NC(=O)c4cnc5n4[C@](C)(Cc4ccc(C#N)cc4)C(=O)N5c4cc(Cl)cc(Cl)c4)CC3)CC2)c1 [compound 138] |
| 0.8 | C[C@H](CO)NC(=O)c1ccc(C2(NC(=O)C3(NC(=O)c4cnc5n4[C@](C)(Cc4ccc(C#N)cc4)C(=O)N5c4cc(Cl)cc(Cl)c4)CC3)CC2)nc1 [compound 141] |
| 0.53 | C[C@@]1(Cc2ccc(C#N)cc2)C(=O)N(c2cc(Cl)cc(Cl)c2)c2ncc(C(=O)NC3(C(=O)NC4(c5cccc(C(=O)N6CC[C@H](O)C6)n5)CC4)CC3)n21 [compound 143] |
| 0.34 | C[C@@]1(Cc2ccc(C#N)cc2)C(=O)N(c2cc(Cl)cc(Cl)c2)c2ncc(C(=O)NC3(C(=O)NC4(c5cc(C(=O)NCCc6ccncc6)ccn5)CC4)CC3)n21 [compound 144] |
| 0.56 | C[C@@]1(Cc2ccc(C#N)cc2)C(=O)N(c2cc(Cl)cc(Cl)c2)c2ncc(C(=O)NC3(C(=O)NC4(c5cccc(C(=O)N6CCOCC6)n5)CC4)CC3)n21 [compound 145] |
| 0.29 | CC(NC(=O)c1ccnc(C2(NC(=O)C3(NC(=O)c4cnc5n4[C@](C)(Cc4ccc(C#N)cc4)C(=O)N5c4cc(Cl)cc(Cl)c4)CC3)CC2)c1)c1ccccn1 (stereo partly shown) [compound 149] |
| 0.81 | CC(CO)NC(=O)c1cccc(C2(NC(=O)C3(NC(=O)c4cnc5n4[C@](C)(Cc4ccc(C#N)cc4)C(=O)N5c4cc(Cl)cc(Cl)c4)CC3)CC2)n1 (stereo partly shown) [compound 150] |
| 0.62 | CC(C)(NC(=O)c1ccc(C2(NC(=O)C3(NC(=O)c4cnc5n4[C@](C)(Cc4ccc(C#N)cc4)C(=O)N5c4cc(Cl)cc(Cl)c4)CC3)CC2)nc1)c1ccccc1 [compound 152] |
| 0.74 | CC(NC(=O)c1ccc(C2(NC(=O)C3(NC(=O)c4cnc5n4[C@](C)(Cc4ccc(C#N)cc4)C(=O)N5c4cc(Cl)cc(Cl)c4)CC3)CC2)nc1)c1ccccn1 (stereo partly shown) [compound 155] |
| 0.52 | CN1CCN(C(=O)c2cccc(C3(NC(=O)C4(NC(=O)c5cnc6n5[C@](C)(Cc5ccc(C#N)cc5)C(=O)N6c5cc(Cl)cc(Cl)c5)CC4)CC3)n2)CC1 [compound 157] |
| 0.42 | C[C@@]1(Cc2ccc(C#N)cc2)C(=O)N(c2cc(Cl)cc(Cl)c2)c2ncc(C(=O)NC3(C(=O)NC4(c5cc(C(=O)NCCn6ccnc6)ccn5)CC4)CC3)n21 [compound 159] |
| 0.37 | CC(NC(=O)c1ccc(C2(NC(=O)C3(NC(=O)c4cnc5n4[C@](C)(Cc4ccc(C#N)cc4)C(=O)N5c4cc(Cl)cc(Cl)c4)CC3)CC2)nc1)c1ccccn1 (stereo partly shown) [compound 160] |
| 0.75 | C[C@@]1(Cc2ccc(C#N)cc2)C(=O)N(c2cc(Cl)cc(Cl)c2)c2ncc(C(=O)NC3(C(=O)NC4(c5cccc(C(=O)N6CCCC(CO)C6)n5)CC4)CC3)n21 (stereo partly shown) [compound 161] |
| 0.65 | C[C@@]1(Cc2ccc(C#N)cc2)C(=O)N(c2cc(Cl)cc(Cl)c2)c2ncc(C(=O)NC3(C(=O)NC4(c5ccc(C(=O)N6CCC[C@@H]6C(N)=O)cn5)CC4)CC3)n21 [compound 163] |
| 0.3 | C[C@H](NC(=O)c1cccc(C2(NC(=O)C3(NC(=O)c4cnc5n4[C@](C)(Cc4ccc(C#N)cc4)C(=O)N5c4cc(Cl)cc(Cl)c4)CC3)CC2)n1)c1ccccc1 [compound 165] |
| 0.41 | CC(C)(NC(=O)c1cccc(C2(NC(=O)C3(NC(=O)c4cnc5n4[C@](C)(Cc4ccc(C#N)cc4)C(=O)N5c4cc(Cl)cc(Cl)c4)CC3)CC2)n1)c1ccccc1 [compound 167] |
| 0.28 | C[C@@]1(Cc2ccc(C#N)cc2)C(=O)N(c2cc(Cl)cc(Cl)c2)c2ncc(C(=O)NC3(C(=O)NC4(c5cccc(C(=O)N6CCC(C(N)=O)CC6)n5)CC4)CC3)n21 [compound 170] |
